This is an account of results in patent publication US20070015688A1, “Method for screening for inhibitors of alzheimer's disease” (priority 2000, published 2007).

The subject of the assay is low-density lipoprotein (LDL). Kind of assay: LDL oxidation (lipid peroxidation) assay of Cu-metallated APP proteins. The assay is classed as biochemical. Particulars: for % of lipid peroxidation by control: Cu-metallated proteins, 0.5 mg/mL LDL, 24 hr, 37° C., control LDL in PBS alone = 100; for effect on lipid peroxidation (Cu-reducing) activity of the CuBD, in words: mutations incorporated into APP133-189. The procedure:
Mutagenesis experiments were performed to test this. His147 and His151 were mutated to Asn, Tyr168 was mutated to Phe, and Met170 was mutated to Leu. These mutations were incorporated into APP133-189. Recombinant protein was expressed in Pichia pastoris as described above, and purified by standard chromatography methods. The identities of the purified proteins were verified by mass spectrometry. The Cu-reducing activity of the CuBD was tested in a lipid peroxidation assay.
Two different assays of metal mediated lipid peroxidation were utilized. The first assay involved measuring the oxidative activity of metallated proteins. This was determined by mixing dialyzed metallated or native protein at designated concentrations with 0.5 mg/mL low-density lipoprotein (LDL) for 24 hr (37° C.). Lipid peroxidation was measured using a lipid peroxidation assay kit (LPO 486, Oxis International Inc. Portland, Oreg.), as per kit instructions.
The control is LDL (0.5 mg/mL) in PBS buffer alone. […] APP133-189 induced strong lipid peroxidation (3-fold above background).

“APP133-189: truncated version of the CuBD of APP, recombinant protein expressed in Pichia pastoris (CKFLHQERMDVCETHLHWHTVAKETCSEKSTNLHDYGMLLPCGIDKFRGVEFVCCPL; UniProt P05067 133-189, looked up, fragment)”: the “% of lipid peroxidation by control” value stood at 312%. The “lipid peroxidation above background” value (background = APP28-123 negative control) turned out to be 3 fold.

Turning to “His147Asn: APP133-189 with His147 mutated to Asn”, the “% of lipid peroxidation by control” value was 87% and the “effect on lipid peroxidation (Cu-reducing) activity of the CuBD, in words” value is listed as “abolished this activity”.

Regarding “Tyr168Phe: APP133-189 with Tyr168 mutated to Phe”, the “% of lipid peroxidation by control” value is given as 111% and the “effect on lipid peroxidation (Cu-reducing) activity of the CuBD, in words” value is reported as “significant effect on the activity”.

“Met170Leu: APP133-189 with Met170 mutated to Leu”: the “% of lipid peroxidation by control” value was determined as 142% and the “effect on lipid peroxidation (Cu-reducing) activity of the CuBD, in words” value was “significant effect on the activity”.

In the case of “His151Asn: APP133-189 with His151 mutated to Asn”, the “% of lipid peroxidation by control” value was found to be 196% and the “effect on lipid peroxidation (Cu-reducing) activity of the CuBD, in words” value is recorded as “affected the activity, but to a lesser extent”.
